Laboratory results as given in US10519177B2, “Heterocyclic compounds and uses thereof” (Plexxikon Inc., priority 2013, dated 2019).
Like-named read-outs stand apart in the source and are kept apart here.

What was measured:
[1] = biological target: BRD4-BD12 (1-477) (Homo sapiens (Human), UniProt O60885); assay: Alphascreen binding assay BRD4-BD12; conditions: BRD4(1 2) H4; read-out: Biochemical activity (IC50 μM) BRD4(1 2) H4
Method in brief: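 In this competition format, compounds displace a biotinylated tetra-acetyl H4 peptide from E. coli-expressed human BRD4 bromodomain constructs captured on nickel chelate beads. The reaction runs at pH 7.5 with 2 mM DTT and detergent for 1 h at room temperature before a 30 min bead step.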

[2] = tested on: MV-4-11 cells; assay: Oncology cell growth assay MV-4-11 (CellTiter Glo); assay type: cell-based; conditions: Homo sapiens, MV4-11, 72 h, read-out: Cell activity (IC50 μM) MV-4-11 3d-Growth
Method in brief: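 Growth read by CellTiter Glo luminescence after 72 h compound treatment of MLL-AF4-bearing MV-4-11 cells (3000/well). Titration: 8 points, 1:3 steps, maximum 10 μM, 0.2% DMSO final. Data normalized to DMSO wells, four-parameter fit gives pIC50.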

[3] = tested on: bromodomain; assay: at least one of the bromodomain cell assays of Example 57; assay type: cell-based; conditions: at least one of the bromodomain cell assays described in Example 57; read-out: IC50 in at least one of the bromodomain cell assays

| Compound | IC50 [1] [µM] | IC50 ([2]; MV-4-11, 3d growth) [µM] | IC50 [3] [nM] | IC50 [2] [µM] |
| --- | --- | --- | --- | --- |
| Cc1noc(C)c1-c1cnc2c(-c3ccc(C(=O)O)c(F)c3F)cn(CC3(F)CCCCC3)c2c1 [P-0476, 4-[6-(3,5-dimethylisoxazol-4-yl)-1-[(1-fluorocyclohexyl)methyl]pyrrolo[3,2-b]pyridin-3-yl]-2,3-difluoro-benzoic acid] | < 1 | < 1 | < 10000 |  |
| Cc1noc(C)c1-c1cnc2c(-c3ccc(C(=O)O)cc3)cn(Cc3ccccc3)c2c1 [P-0375, 4-[1-benzyl-6-(3,5-dimethylisoxazol-4-yl)pyrrolo[3,2-b]pyridin-3-yl]benzoic acid] | < 1 |  | < 10000 | < 1 |
| COC(=O)c1ccc(-c2cn(CC3(F)CCC(F)(F)CC3)c3cc(-c4c(C)noc4C)cnc23)cn1 [P-0454, methyl 5-[6-(3,5-dimethylisoxazol-4-yl)-1-[(1,4,4-trifluorocyclohexyl)methyl]pyrrolo[3,2-b]pyridin-3-yl]pyridine-2-carboxylate] | < 1 | < 1 | < 10000 |  |
| Cc1noc(C)c1-c1cnc2c(-c3cccc(CC(=O)O)c3)cn(CC3(F)CCCCC3)c2c1 [P-0384, 2-[3-[6-(3,5-dimethylisoxazol-4-yl)-1-[(1-fluorocyclohexyl)methyl]pyrrolo[3,2-b]pyridin-3-yl]phenyl]acetic acid] | < 1 |  | < 10000 | < 1 |
| COc1ncc(-c2cn(CC3(F)CCCCC3)c3cc(-c4c(C)noc4C)cnc23)cn1 [P-0464, 4-[1-[(1-fluorocyclohexyl)methyl]-3-(2-methoxypyrimidin-5-yl)pyrrolo[3,2-b]pyridin-6-yl]-3,5-dimethyl-isoxazole] | < 1 | < 1 | < 10000 |  |
| Cn1cc(-c2cn(CC3CCC(F)(F)CC3)c3cc(-c4ccc(=O)n(C)c4)cnc23)cn1 [P-0438, 5-[1-[(4,4-difluorocyclohexyl)methyl]-3-(1-methylpyrazol-4-yl)pyrrolo[3,2-b]pyridin-6-yl]-1-methyl-pyridin-2-one] | < 1 | < 1 | < 10000 |  |
| Cc1noc(C)c1-c1cnc2c(-c3ccc(=O)n(C)c3)cn(CC3(F)CCCCC3)c2c1 [P-0471, 5-[6-(3,5-dimethylisoxazol-4-yl)-1-[(1-fluorocyclohexyl)methyl]pyrrolo[3,2-b]pyridin-3-yl]-1-methyl-pyridin-2-one] | < 1 | < 1 | < 10000 |  |
| Cc1noc(C)c1-c1cnc2c(-c3ccc(CC(=O)O)cc3)cn(CC3CCCCCC3)c2c1 [P-0587, 2-[4-[1-(cycloheptylmethyl)-6-(3,5-dimethylisoxazol-4-yl)pyrrolo[3,2-b]pyridin-3-yl]phenyl]acetic acid] | < 1 | < 1 | < 10000 |  |
| Cc1noc(C)c1-c1cnc2c(-c3ccc(C(=O)O)nc3)cn(CC3(F)CCC(F)(F)CC3)c2c1 [P-0456, 5-[6-(3,5-dimethylisoxazol-4-yl)-1-[(1,4,4-trifluorocyclohexyl)methyl]pyrrolo[3,2-b]pyridin-3-yl]pyridine-2-carboxylic acid] | < 1 | < 1 | < 10000 |  |
| Cc1noc(C)c1-c1cnc2c(-c3ccc(CC(=O)O)cc3)cn(CC3CCC(F)(F)CC3)c2c1 [P-0413, 2-[4-[1-[(4,4-difluorocyclohexyl)methyl]-6-(3,5-dimethylisoxazol-4-yl)pyrrolo[3,2-b]pyridin-3-yl]phenyl]acetic acid] | < 1 |  | < 10000 | < 1 |
| Cc1noc(C)c1-c1cnc2c(-c3cccc(S(=O)(=O)NCCO)c3)cn(CC3(F)CCCCC3)c2c1 [P-0491, 3-[6-(3,5-dimethylisoxazol-4-yl)-1-[(1-fluorocyclohexyl)methyl]pyrrolo[3,2-b]pyridin-3-yl]-N-(2-hydroxyethyl)benzenesulfonamide] | < 1 | < 1 | < 10000 |  |
| Cc1noc(C)c1-c1cnc2c(-c3ccc4c(c3)CNC4=O)cn(CC3(F)CCCCC3)c2c1 [P-0505, 5-[6-(3,5-dimethylisoxazol-4-yl)-1-[(1-fluorocyclohexyl)methyl]pyrrolo[3,2-b]pyridin-3-yl]isoindolin-1-one] | < 1 | < 1 | < 10000 |  |
| [2H]C([2H])(C1CCC(F)(F)CC1)n1cc(-c2ccc(C)nc2)c2ncc(-c3c(C)noc3C)cc21 [P-0344, 4-[1-[dideuterio-(4,4-difluorocyclohexyl)methyl]-3-(6-methyl-3-pyridyl)pyrrolo[3,2-b]pyridin-6-yl]-3,5-dimethyl-isoxazole] | < 1 |  | < 10000 | < 1 |
| CNC(=O)c1ccc(-n2cc(CC3CCC(F)(F)CC3)c3cc(-c4c(C)noc4C)cnc32)nc1 [P-0532, 6-[3-[(4,4-difluorocyclohexyl)methyl]-5-(3,5-dimethylisoxazol-4-yl)pyrrolo[2,3-b]pyridin-1-yl]-N-methyl-pyridine-3-carboxamide] | < 1 | < 1 | < 10000 |  |
| Cc1noc(C)c1-c1cnc2c(-c3csc(C(=O)O)c3)cn(CC3CCC(F)(F)CC3)c2c1 [P-0484, 4-[1-[(4,4-difluorocyclohexyl)methyl]-6-(3,5-dimethylisoxazol-4-yl)pyrrolo[3,2-b]pyridin-3-yl]thiophene-2-carboxylic acid] | < 1 | < 1 | < 10000 |  |
| Cc1noc(C)c1-c1cnc2c(-c3ccc(C4(C(=O)O)CC4)cc3)cn(CC3(F)CCCCC3)c2c1 [P-0385, 1-[4-[6-(3,5-dimethylisoxazol-4-yl)-1-[(1-fluorocyclohexyl)methyl]pyrrolo[3,2-b]pyridin-3-yl]phenyl]cyclopropanecarboxylic acid] | < 1 |  | < 10000 | < 1 |
| [2H]C([2H])(C1CCC(F)(F)CC1)n1cc(-c2cnn(CC)c2)c2ncc(-c3c(C)noc3C)cc21 [P-0336, 4-[1-[dideuterio-(4,4-difluorocyclohexyl)methyl]-3-(1-ethylpyrazol-4-yl)pyrrolo[3,2-b]pyridin-6-yl]-3,5-dimethyl-isoxazole] | < 1 |  | < 10000 | < 1 |
| Cc1noc(C)c1-c1cnc2c(-c3ccc(C4(C#N)CC4)cc3)cn(CC3CCC(F)(F)CC3)c2c1 [P-0507, 1-[4-[1-[(4,4-difluorocyclohexyl)methyl]-6-(3,5-dimethylisoxazol-4-yl)pyrrolo[3,2-b]pyridin-3-yl]phenyl]cyclopropanecarbonitrile] | < 1 | < 1 | < 10000 |  |
| Cc1noc(C)c1-c1cnc2c(-c3cnn(CC(F)(F)F)c3)cn(Cc3ncccn3)c2c1 [P-0353, 3,5-dimethyl-4-[1-(pyrimidin-2-ylmethyl)-3-[1-(2,2,2-trifluoroethyl)pyrazol-4-yl]pyrrolo(3,2-b]pyridin-6-yl]isoxazole] | < 1 |  | < 10000 | < 1 |
| CNS(=O)(=O)c1cccc(-c2cn(CC3(F)CCCCC3)c3cc(-c4c(C)noc4C)cnc23)c1 [P-0489, 3-[6-(3,5-dimethylisoxazol-4-yl)-1-[(1-fluorocyclohexyl)methyl]pyrrolo[3,2-b]pyridin-3-yl]-N-methyl-benzenesulfonamide] | < 1 | < 1 | < 10000 |  |
| Cc1noc(C)c1-c1cnc2c(-c3cnc(C4CC4)nc3)cn(CC3(F)CCCCC3)c2c1 [P-0474, 4-[3-(2-cyclopropylpyrimidin-5-yl)-1-[(1-fluorocyclohexyl)methyl]pyrrolo[3,2-b]pyridin-6-yl]-3,5-dimethyl-isoxazole] | < 1 | < 1 | < 10000 |  |
| Cc1noc(C)c1-c1cnc2c(-c3ccc(C(=O)O)cc3)cn(CC3(C)CCOCC3)c2c1 [P-0774, 4-[6-(3,5-dimethylisoxazol-4-yl)-1-[(4-methyltetrahydropyran-4-yl)methyl]pyrrolo[3,2-b]pyridin-3-yl]benzoic acid] | < 1 | < 1 | < 10000 |  |
| Cc1noc(C)c1-c1cnc2c(-c3ccc(CC(=O)O)cc3)cn(CC3CCCC3)c2c1 [P-0591, 2-[4-[1-(cyclopentylmethyl)-6-(3,5-dimethylisoxazol-4-yl)pyrrolo[3,2-b]pyridin-3-yl]phenyl]acetic acid] | < 1 | < 1 | < 10000 |  |
| Cc1noc(C)c1-c1cnc2c(-c3cccc(CC(=O)O)c3)cn(CC3CCC(F)(F)CC3)c2c1 [P-0411, 2-[3-[1-[(4,4-difluorocyclohexyl)methyl]-6-(3,5-dimethylisoxazol-4-yl)pyrrolo[3,2-b]pyridin-3-yl]phenyl]acetic acid] | < 1 |  | < 10000 | < 1 |
| COC(=O)Cc1ccc(-c2cn([C@@H](C)c3ccccn3)c3cc(-c4c(C)noc4C)cnc23)cc1 [P-0565, methyl 2-[4-[6-(3,5-dimethylisoxazol-4-yl)-1-[(1S)-1-(2-pyridyl)ethyl]pyrrolo[3,2-b]pyridin-3-yl]phenyl]acetate] | < 1 | < 1 | < 10000 |  |
| Cc1noc(C)c1-c1cnc2c(-c3ccc(B(O)O)cc3)cn(CC3CCC(F)(F)CC3)c2c1 [P-0596, [4-[1-[(4,4-difluorocyclohexyl)methyl]-6-(3,5-dimethylisoxazol-4-yl)pyrrolo[3,2-b]pyridin-3-yl]phenyl]boronic acid] | < 1 | < 1 | < 10000 |  |
